# Laboratory results: patent publication EP4467141A1, “PYRAZOLO-QUINOLINES AS SELECTIVE INHIBITORS OF GENOTOXIC STRESS-INDUCED IKK/NF- KB PATHWAYS FOR CANCER THERAPY” (Max-Delbrück-Centrum für Molekulare Medizin in der …, priority 2023, dated 2024)
# Read-outs that look alike come from different tables or passages of the source.
# Legend:
# Test in all cases: Kinase panel study
# Assay type in all cases: biochemical
# [1] = biological target: T1, AKT3 (PKB gamma) (Homo sapiens, UniProt Q9Y243)
# T1 construct: purchased Thermo Fisher Scientific
# T1 sequence (Q9Y243 whole entry): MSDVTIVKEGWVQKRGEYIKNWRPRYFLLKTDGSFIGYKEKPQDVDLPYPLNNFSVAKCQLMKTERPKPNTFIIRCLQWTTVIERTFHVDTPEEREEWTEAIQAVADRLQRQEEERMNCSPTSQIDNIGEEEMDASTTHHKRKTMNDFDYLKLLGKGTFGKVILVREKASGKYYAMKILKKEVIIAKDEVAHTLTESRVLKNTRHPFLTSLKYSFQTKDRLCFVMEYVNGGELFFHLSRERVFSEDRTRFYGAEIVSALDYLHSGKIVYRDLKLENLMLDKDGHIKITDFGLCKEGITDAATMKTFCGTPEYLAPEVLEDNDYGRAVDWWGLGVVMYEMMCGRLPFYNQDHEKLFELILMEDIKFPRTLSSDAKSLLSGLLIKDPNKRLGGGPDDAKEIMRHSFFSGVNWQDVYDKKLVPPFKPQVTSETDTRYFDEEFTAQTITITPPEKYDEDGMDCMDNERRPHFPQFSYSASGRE
# Protocol: (§1) The Kinase panel study was entirely provided by Thermo Fisher Scientific using the two lead compounds MW01 and MW05 as well as their derivatives (MW01-E06, MW01-E10, MW01-E14, MW01-E18, MW05-E2, MW05-E3, MW05-E9 and MW05-E10. The experiment was performed using the ZLyte or Adapta protocol according to manufacturer standard operating procedures.
# (§2) Based on their similar effects in our screen and molecular analysis, MW01 and MW05 were used in comparative target deconvolution studies seeking common targets despite their distinct structures. To eliminate previously identified kinases regulating NF-κB activity, such as IKK, as possible targets of MW01 and MW05, an in vitro kinase inhibition assay was performed. […] We next investigated if any of the shared kinase targets of MW01 and MW05 play a role in genotoxic stress-induced NF-κB activity and established several criteria to narrow down pathway-relevant targets. Considering the similar NF-κB inhibition phenotypes of both compounds, we hypothesized first that the target should be shared by both lead compounds. Second, based on the CaCo2 recovery values and experimental treatment concentration of 10 µM), the putative target kinase should have a low IC50 of, at most, 2000 nM for both lead compounds in the in vitro kinase panel (Fig. 2A). Based on these criteria alone, we arrived at a relatively short list of potential targets for further analysis, leaving only PIK3CG, PIK3C2G, and CLK2 (Fig. 2B). IC50 values for PIK3C2G by both lead compounds agreed best with these criteria, but RNA expression analysis indicates high tissue specificity as well as lack of expression of this kinase in our U2-OS model cell line, which we then eliminated from further analysis (Uhlén et al., 2015). […] Table 6: Percentage of inhibition of the indicated kinases by MW01 or MW05 at either 10 µM or 1 µM. n.d. = not determined.
# [2] = biological target: T2, CSF1R (FMS) (Homo sapiens, UniProt P07333)
# T2 construct: purchased Thermo Fisher Scientific
# T2 sequence (P07333 20-972): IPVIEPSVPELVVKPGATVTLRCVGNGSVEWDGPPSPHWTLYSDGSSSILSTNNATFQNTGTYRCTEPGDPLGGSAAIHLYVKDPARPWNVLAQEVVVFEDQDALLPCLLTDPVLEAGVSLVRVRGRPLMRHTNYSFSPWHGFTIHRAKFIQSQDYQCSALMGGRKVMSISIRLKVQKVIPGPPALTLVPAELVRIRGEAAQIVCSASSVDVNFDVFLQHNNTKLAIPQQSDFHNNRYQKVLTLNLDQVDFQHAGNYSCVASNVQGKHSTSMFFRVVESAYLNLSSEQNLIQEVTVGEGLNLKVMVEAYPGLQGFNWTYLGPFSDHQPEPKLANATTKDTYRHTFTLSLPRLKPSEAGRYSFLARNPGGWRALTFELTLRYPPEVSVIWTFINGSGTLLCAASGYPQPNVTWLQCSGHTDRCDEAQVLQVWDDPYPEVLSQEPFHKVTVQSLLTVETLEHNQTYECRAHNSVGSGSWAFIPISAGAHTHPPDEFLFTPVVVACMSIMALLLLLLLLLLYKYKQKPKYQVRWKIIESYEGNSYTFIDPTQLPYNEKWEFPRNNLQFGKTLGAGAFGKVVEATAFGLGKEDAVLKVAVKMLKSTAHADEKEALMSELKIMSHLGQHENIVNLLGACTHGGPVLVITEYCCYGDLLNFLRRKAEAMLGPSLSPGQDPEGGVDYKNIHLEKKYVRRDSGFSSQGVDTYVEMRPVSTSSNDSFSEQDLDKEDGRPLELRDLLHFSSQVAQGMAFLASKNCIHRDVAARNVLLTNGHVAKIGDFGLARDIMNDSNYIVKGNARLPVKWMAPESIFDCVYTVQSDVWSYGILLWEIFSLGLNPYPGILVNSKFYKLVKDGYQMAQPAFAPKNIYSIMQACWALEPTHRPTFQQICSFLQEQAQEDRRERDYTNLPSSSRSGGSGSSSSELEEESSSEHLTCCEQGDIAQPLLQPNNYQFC
# Protocol: as §1, §2
# [3] = biological target: T3, DNA-PK (Homo sapiens, UniProt P78527)
# T3 construct: purchased Thermo Fisher Scientific
# Protocol: as §1, §2
# [4] = biological target: T4, DYRK1B (Homo sapiens, UniProt Q9Y463)
# T4 construct: purchased Thermo Fisher Scientific
# T4 sequence (Q9Y463 whole entry): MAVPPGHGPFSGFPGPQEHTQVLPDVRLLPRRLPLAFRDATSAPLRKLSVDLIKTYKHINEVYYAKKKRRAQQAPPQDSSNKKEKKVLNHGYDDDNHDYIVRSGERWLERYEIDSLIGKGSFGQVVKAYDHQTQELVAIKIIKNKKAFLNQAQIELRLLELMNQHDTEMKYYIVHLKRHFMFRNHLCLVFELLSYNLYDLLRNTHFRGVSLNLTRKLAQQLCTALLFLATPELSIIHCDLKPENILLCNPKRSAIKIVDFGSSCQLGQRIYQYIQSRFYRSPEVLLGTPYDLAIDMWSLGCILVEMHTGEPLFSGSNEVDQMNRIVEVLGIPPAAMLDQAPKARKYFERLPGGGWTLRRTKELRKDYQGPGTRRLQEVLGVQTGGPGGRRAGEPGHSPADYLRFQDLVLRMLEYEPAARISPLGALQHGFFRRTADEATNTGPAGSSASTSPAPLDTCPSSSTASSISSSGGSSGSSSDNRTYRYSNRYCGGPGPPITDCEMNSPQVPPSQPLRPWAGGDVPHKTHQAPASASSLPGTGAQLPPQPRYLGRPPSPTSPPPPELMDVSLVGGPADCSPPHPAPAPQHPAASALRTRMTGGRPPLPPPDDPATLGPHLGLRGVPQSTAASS
# Protocol: as §1, §2
# [5] = biological target: T5, EGFR (ErbB1) (Homo sapiens, UniProt P00533)
# T5 construct: purchased Thermo Fisher Scientific
# Protocol: as §1, §2
# [6] = biological target: T6, FRAP1 (mTOR) (Homo sapiens, UniProt P42345)
# T6 construct: purchased Thermo Fisher Scientific
# Protocol: as §1, §2
# [7] = biological target: T7, IRAK4 (Homo sapiens, UniProt Q9NWZ3)
# T7 construct: purchased Thermo Fisher Scientific
# T7 sequence (Q9NWZ3 1-460): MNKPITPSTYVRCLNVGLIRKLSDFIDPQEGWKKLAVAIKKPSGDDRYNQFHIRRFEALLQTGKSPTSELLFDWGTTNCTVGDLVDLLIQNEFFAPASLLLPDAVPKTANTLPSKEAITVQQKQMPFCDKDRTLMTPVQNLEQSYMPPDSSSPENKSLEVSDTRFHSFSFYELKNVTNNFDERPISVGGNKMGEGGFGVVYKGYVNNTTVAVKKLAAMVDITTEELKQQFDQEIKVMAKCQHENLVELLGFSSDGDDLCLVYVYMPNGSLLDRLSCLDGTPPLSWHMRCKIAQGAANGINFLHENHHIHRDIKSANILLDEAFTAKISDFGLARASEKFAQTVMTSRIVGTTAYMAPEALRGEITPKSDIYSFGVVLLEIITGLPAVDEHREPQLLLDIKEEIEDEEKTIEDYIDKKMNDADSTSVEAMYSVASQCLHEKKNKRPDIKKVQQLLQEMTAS
# Protocol: as §1, §2
# [8] = biological target: T8, LRRK2 (Homo sapiens, UniProt Q5S007)
# T8 construct: purchased Thermo Fisher Scientific
# T8 sequence (Q5S007 970-2527 limits assumed): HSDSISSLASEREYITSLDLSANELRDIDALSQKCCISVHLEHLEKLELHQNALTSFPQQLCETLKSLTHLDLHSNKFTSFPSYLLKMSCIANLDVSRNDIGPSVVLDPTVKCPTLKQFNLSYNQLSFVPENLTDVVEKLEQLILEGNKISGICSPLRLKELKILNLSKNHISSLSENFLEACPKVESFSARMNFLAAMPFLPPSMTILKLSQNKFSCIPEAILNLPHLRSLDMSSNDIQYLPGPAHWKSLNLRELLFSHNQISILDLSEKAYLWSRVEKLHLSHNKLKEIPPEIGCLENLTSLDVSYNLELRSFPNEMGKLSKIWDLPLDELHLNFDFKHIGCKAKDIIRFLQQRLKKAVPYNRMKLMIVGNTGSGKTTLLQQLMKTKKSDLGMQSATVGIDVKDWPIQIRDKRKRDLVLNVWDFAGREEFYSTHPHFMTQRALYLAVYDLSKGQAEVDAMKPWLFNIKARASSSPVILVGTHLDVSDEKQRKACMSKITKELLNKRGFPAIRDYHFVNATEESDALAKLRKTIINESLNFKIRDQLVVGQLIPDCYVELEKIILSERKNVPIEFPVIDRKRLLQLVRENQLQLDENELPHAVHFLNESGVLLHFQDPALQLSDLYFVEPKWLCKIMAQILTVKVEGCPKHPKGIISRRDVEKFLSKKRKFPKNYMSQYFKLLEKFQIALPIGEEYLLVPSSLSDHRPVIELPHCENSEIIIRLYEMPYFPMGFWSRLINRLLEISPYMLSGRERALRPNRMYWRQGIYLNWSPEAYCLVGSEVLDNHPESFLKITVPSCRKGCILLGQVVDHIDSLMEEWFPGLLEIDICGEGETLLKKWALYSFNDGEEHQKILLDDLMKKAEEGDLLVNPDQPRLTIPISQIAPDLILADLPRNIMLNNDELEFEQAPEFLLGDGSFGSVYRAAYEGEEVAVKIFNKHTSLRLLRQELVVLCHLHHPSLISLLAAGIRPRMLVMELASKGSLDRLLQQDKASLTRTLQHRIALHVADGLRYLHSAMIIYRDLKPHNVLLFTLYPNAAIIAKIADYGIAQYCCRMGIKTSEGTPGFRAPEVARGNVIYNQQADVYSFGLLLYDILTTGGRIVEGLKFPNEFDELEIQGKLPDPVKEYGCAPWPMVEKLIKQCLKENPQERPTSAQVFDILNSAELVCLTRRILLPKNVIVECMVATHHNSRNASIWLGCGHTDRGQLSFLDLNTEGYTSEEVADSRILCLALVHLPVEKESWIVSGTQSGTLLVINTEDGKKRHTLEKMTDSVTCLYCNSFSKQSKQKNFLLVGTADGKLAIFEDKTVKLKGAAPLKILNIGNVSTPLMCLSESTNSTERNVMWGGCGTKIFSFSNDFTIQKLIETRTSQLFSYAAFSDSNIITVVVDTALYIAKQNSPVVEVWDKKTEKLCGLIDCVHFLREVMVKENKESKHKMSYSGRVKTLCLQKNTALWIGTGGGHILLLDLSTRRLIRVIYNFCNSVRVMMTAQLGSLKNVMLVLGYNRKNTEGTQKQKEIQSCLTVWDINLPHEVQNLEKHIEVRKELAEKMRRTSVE
# Protocol: as §1, §2
# [9] = biological target: T9, PI4KB (PI4K beta) (Homo sapiens, UniProt Q9UBF8)
# T9 construct: purchased Thermo Fisher Scientific
# T9 sequence (Q9UBF8 whole entry): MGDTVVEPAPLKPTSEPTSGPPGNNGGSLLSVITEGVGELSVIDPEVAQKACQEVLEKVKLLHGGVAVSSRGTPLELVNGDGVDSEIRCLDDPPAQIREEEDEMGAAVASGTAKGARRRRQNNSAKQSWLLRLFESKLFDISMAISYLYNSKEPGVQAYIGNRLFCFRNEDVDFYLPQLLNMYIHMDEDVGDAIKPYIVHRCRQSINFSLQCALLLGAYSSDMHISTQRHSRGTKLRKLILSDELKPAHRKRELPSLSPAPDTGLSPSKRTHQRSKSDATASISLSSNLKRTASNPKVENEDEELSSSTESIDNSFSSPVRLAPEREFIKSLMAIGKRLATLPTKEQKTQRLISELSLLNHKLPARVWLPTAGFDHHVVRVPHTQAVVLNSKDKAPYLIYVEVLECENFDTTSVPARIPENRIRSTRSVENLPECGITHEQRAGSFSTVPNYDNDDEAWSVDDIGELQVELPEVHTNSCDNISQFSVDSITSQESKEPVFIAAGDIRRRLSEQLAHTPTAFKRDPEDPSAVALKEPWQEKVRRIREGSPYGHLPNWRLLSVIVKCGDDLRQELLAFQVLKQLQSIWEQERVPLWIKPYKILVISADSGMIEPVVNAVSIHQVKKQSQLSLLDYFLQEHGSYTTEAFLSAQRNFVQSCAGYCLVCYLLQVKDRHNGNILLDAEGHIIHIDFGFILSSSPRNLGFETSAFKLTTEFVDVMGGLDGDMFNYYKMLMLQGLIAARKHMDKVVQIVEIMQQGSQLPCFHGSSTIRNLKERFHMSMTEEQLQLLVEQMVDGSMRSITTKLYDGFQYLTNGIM
# Protocol: as §1, §2
# [10] = biological target: T10, PIK3CA/PIK3R3 (p11 0 alpha/p55 gamma) (Homo sapiens, UniProt P42336)
# T10 construct: purchased Thermo Fisher Scientific
# Protocol: as §1, §2
# [11] = biological target: T11, PIK3CB/PIK3R1 (p110 beta/p85 alpha) (Homo sapiens, UniProt P42338)
# T11 construct: purchased Thermo Fisher Scientific
# Protocol: as §1, §2
# [12] = biological target: T12, PIP5K1A (Homo sapiens, UniProt Q99755)
# T12 construct: purchased Thermo Fisher Scientific
# T12 sequence (Q99755 whole entry): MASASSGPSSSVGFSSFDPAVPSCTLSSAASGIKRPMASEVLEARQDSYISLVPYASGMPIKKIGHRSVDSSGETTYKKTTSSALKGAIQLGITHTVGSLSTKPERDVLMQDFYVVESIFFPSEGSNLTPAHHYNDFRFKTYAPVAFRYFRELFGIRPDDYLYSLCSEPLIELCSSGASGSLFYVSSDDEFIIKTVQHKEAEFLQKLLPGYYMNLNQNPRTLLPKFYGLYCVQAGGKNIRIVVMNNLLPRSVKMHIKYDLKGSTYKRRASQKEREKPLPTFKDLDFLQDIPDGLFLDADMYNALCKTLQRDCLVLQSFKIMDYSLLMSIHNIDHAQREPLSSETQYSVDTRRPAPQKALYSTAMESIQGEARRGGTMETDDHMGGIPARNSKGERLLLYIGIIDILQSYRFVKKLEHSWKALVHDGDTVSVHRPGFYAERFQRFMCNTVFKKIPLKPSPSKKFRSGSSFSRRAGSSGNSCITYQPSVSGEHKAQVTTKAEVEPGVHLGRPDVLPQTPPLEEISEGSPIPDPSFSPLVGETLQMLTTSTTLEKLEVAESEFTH
# Protocol: as §1, §2
# [13] = biological target: T13, PRKCN (PKD3) (Homo sapiens, UniProt O94806)
# T13 construct: purchased Thermo Fisher Scientific
# T13 sequence (O94806 1-890): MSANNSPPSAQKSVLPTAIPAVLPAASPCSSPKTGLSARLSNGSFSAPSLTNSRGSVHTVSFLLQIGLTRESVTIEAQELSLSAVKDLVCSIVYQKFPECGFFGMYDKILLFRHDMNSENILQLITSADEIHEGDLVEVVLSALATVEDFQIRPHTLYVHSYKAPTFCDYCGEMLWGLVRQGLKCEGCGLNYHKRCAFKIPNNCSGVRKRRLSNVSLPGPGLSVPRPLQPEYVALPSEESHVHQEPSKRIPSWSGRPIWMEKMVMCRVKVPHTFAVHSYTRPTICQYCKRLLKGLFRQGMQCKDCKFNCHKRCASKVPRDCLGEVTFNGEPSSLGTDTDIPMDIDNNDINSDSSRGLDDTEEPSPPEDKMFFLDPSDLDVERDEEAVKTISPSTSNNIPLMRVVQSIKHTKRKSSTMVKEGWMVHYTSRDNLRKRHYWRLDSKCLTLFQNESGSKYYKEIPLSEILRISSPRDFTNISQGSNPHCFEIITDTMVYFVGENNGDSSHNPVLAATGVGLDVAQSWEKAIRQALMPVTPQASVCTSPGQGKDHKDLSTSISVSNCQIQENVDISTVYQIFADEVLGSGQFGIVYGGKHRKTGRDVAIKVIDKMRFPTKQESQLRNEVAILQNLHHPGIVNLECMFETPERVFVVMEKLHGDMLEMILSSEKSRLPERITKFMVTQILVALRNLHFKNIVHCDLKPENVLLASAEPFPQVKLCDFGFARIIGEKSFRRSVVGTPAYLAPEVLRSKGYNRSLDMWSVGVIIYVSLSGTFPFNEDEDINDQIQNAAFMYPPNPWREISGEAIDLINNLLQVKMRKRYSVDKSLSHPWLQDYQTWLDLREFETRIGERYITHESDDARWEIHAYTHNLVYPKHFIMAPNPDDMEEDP
# Protocol: as §1, §2
# [14] = 1000nM, read-out: Percentage of inhibition
# [15] = 10000nM, read-out: Percentage of inhibition
# [16] = AKT3 (PKB gamma), compound at 10µM, read-out: % of Inhibition
# [17] = CSF1R (FMS), compound at 10µM, read-out: % of Inhibition
# [18] = DNA-PK, compound at 10µM, read-out: % of Inhibition
# [19] = DYRK1B, compound at 10µM, read-out: % of Inhibition
# [20] = EGFR (ErbB1), compound at 10µM, read-out: % of Inhibition
# [21] = FRAP1 (mTOR), compound at 10µM, read-out: % of Inhibition
# [22] = IRAK4, compound at 10µM, read-out: % of Inhibition
# [23] = LRRK2, compound at 10µM, read-out: % of Inhibition
# [24] = PI4KB (PI4K beta), compound at 10µM, read-out: % of Inhibition
# [25] = PIK3CA/PIK3R3, compound at 10µM, read-out: % of Inhibition
# [26] = PIK3CB/PIK3R1, compound at 10µM, read-out: % of Inhibition
# [27] = PIP5K1A, compound at 10µM, read-out: % of Inhibition
# [28] = PRKCN (PKD3), compound at 10µM, read-out: % of Inhibition
compound,measurement,setting,value
"COc1ccc2c(c1OC)c(=O)n1c3ccc(O)cc3c3ccnc2c31 [MW01, 5-Hydroxy-10,11-dimethoxy-9H-benzo[c]indolo[3,2,1-ij][1,5]naphthyridin-9-one]",inhibition at 1 µM,[1]; [14],7%
same,inhibition at 10 µM,[1]; [15],18%
same,inhibition at 1 µM,[2]; [14],36%
same,inhibition at 10 µM,[2]; [15],51%
same,inhibition at 1 µM,[3]; [14],86%
same,inhibition at 10 µM,[3]; [15],96%
same,inhibition at 1 µM,[4]; [14],62%
same,inhibition at 10 µM,[4]; [15],82%
same,inhibition at 1 µM,[5]; [14],17%
same,inhibition at 10 µM,[5]; [15],0%
same,inhibition at 1 µM,[6]; [14],31%
same,inhibition at 10 µM,[6]; [15],80%
same,IC50,"[6]; in vitro kinase panel, sub-2000 nM criterion",≥ 2 µM
same,inhibition at 1 µM,[7]; [14],19%
same,inhibition at 10 µM,[7]; [15],50%
same,inhibition at 1 µM,[8]; [14],83%
same,inhibition at 10 µM,[8]; [15],87%
same,inhibition at 1 µM,[9]; [14],94%
same,inhibition at 10 µM,[9]; [15],100%
same,inhibition at 1 µM,[10]; [14],92%
same,inhibition at 10 µM,[10]; [15],96%
same,inhibition at 1 µM,[11]; [14],30%
same,inhibition at 10 µM,[11]; [15],67%
same,inhibition at 1 µM,[12]; [14],25%
same,inhibition at 10 µM,[12]; [15],43%
same,inhibition at 1 µM,[13]; [14],34%
same,inhibition at 10 µM,[13]; [15],57%
"COc1ccc2c(c1)c1ccnc3c4nc(OC)ccc4c(=O)n2c13 [MW01-E6, 5,15-dimethoxy-1,11,14-triazapentacyclo[10.7.1,0^2,7.0^8,^20.0^13,^18]icosa-2(7),3,5,8(20),9,11,13(18),14,16-nonaen-19-one]",inhibition at 10 µM,[1]; [16],12%
same,inhibition at 10 µM,[2]; [17],33%
same,inhibition at 10 µM,[3]; [18],9%
same,inhibition at 10 µM,[4]; [19],20%
same,inhibition at 10 µM,[5]; [20],11%
same,inhibition at 10 µM,[6]; [21],12%
same,inhibition at 10 µM,[7]; [22],-9%
same,inhibition at 10 µM,[8]; [23],64%
same,inhibition at 10 µM,[9]; [24],12%
same,inhibition at 10 µM,[10]; [25],10%
same,inhibition at 10 µM,[11]; [26],13%
same,inhibition at 10 µM,[12]; [27],20%
same,inhibition at 10 µM,[13]; [28],-8%
"O=c1c2cc(O)ccc2c2nccc3c4cc(O)ccc4n1c32 [MW01-E10, 5,16-dihydroxy-1,11-diazapentacyclo[10.7.1.0^2,^7.0^8,^20.0^13,^18]icosa-2(7),3,5,8(20),9,11,13(18),14,16-nonaen-19-one]",inhibition at 10 µM,[1]; [16],24%
same,inhibition at 10 µM,[2]; [17],61%
same,inhibition at 10 µM,[3]; [18],62%
same,inhibition at 10 µM,[4]; [19],81%
same,inhibition at 10 µM,[5]; [20],15%
same,inhibition at 10 µM,[6]; [21],42%
same,inhibition at 10 µM,[7]; [22],-186%
same,inhibition at 10 µM,[8]; [23],86%
same,inhibition at 10 µM,[9]; [24],90%
same,inhibition at 10 µM,[10]; [25],90%
same,inhibition at 10 µM,[11]; [26],34%
same,inhibition at 10 µM,[12]; [27],5%
same,inhibition at 10 µM,[13]; [28],74%
